Data as given in patent publication EP0190464A2, “Novel anti-cancer drugs” (YEDA RESEARCH AND DEVELOPMENT COMPANY LIMITED, priority 1984, dated 1986).

Key:
38C-13 tumor cells = assay: Inhibition of DNA synthesis ([3H]-methylthymidine incorporation); assay type: cell-based, murine; details: Fig. 2
Experimental: Inhibition of DNA synthesis by the free platinum compounds of their complexes was determined as follows. Tumor cells (2-5 x 10^4/0.1 ml) suspended in their suitable grwoth media were dispersed into wells of microtiter plates. The Platinum compounds or complexes were added to the cells in […] aliquots. The plates were incubated for 21 hr at 37 °C in a humidified atmosphere of 5% CO2 in air. At that time 10 µl containing 0.5 µci of [^3H]-methylthymidine were added to each well and the plates were incubated for 3 hr as above. The reaction was terminated using a Titerteck cell harvester.
Pt complexes used in the in vitro and in vivo experiments were prepared under conditions of maximal binding, that is, 98-100% binding of the free drugs. In vivo experiments were performed with cis-Pt and cis-aq complexes. […] Cis-Pt and cis-aq complexes of dex-NH2 were tested and found to be active in vitro against 5 murine tumors (EL-4, 38-C13, L1210, RDM and F-9) and 2 human derived tumors (Hela and Osteosarcoma). […] This activity was lost, however upon exhaustive dialysis.

tumors = assay: Activity against tumors in vivo (general statement); details: uncomplexed salt
[1] = system: F-9 murine embryonal carcinoma cells; assay: In vivo suppression of F-9 embryonal carcinoma, I.P. tumor and I.P. treatment; set-up: species or system Balb/c mice; effective dose (range): unit not given here; details: for survival (average): free drug at optimal doses, one day after tumor
Experimental: In vivo experiments were performed with F-9 murine embryonal carcinoma cells which were maintained in-vitro in DMEM supplemented with 10% fetal calf serum, glutamine and antibiotics, in gelatine (0.1%) coated culture flasks. In-vivo experiments were performed in female Balb/c mice at the age of 2-3 months.
In experiment I, 300,000 tumor cells were inoculated intraperitoneally (I.P.) into Balb/c mice.
The in vivo chemotherapeutic effect of the different complexes in comparison with free drugs was evaluated by the suppression of F9 embryonal carcinoma in Balb/c mice. […]

[2] = Toxicity in tumor-free mice, single I.V. injection; assay type: in vivo; details: free drugs, ICR mice
Experimental: Preliminary toxicity experiments with CM-dex and ?ex-NH2 complexes were performed to compare the toxicity of the free drugs and the complexes in tumor-free ICR mice. Pairs of mice were given a single I.V. injection of each of the drugs or drug complexes at a wide concentration range. Death of mice due to toxicity occurred between 1 to 7 days after injection. The results (Table 8) indicate the maximal non-toxic (none of the mice died) and the minimal toxic dose (death of both mice). […] The CM-dex T-40 of both drugs were also toxic although somewhat less than the free drugs, with no significant difference between the cis-Pt and cis-aq complexes. […] The dex-NH2 were also considerably less toxic than the free drugs.

[3] = Exp. II: 600,000 cells I.P., treatment 2 days after tumor, 60 µg
[4] = Exp. I: 300,000 tumor cells I.P., 50 µg, out of 5 TBM

SMILES | fold less inhibitory than cis-Pt and cis-aq (38C-13 tumor cells) [fold] | IC50 (38C-13 tumor cells; read-out: 50% inhibition of DNA synthesis, 21 hr at 37°C with drug, then 3 hr [3H]-methylthymidine pulse) [µM] | activity against tumors in vivo (tumors) | died of the tumor ([1]; Exp. I: 300,000 tumor cells I.P., 100 ug I.P. 1 day after tumor inoculation) | time of death of the tumor after receiving the tumor cells ([1]; Exp. I: 300,000 tumor cells I.P., 100 ug I.P. day 1, the 1/5 mouse that died of tumor) [days] | protective against the tumor [1, 3] | survival (average) ([1]; F9 tumor, Table 7) | died of drug toxicity [1, 4] | died of the tumor [1, 4] | survived [1, 4] | non-protective against the tumor [1, 3] | toxic [1, 3] | effective dose (range) ([1]; F9 tumor, single dose, Table 5) | toxicity at a slightly higher than optimal dose ([1]; F9 tumor, free drug, Table 7) | toxicity compared with cis-Pt [2]
[Cl][Pt-2]([Cl])([Cl])[Cl].[K+].[K+] [K2PtCl4] | 20 | 20 | essentially inactive | – | – | – | – | – | – | – | – | – | – | – | –
N.N.[Cl][Pt][Cl] [cis-Pt, Cis-dichlorodiammine Platinum (II)] | – | – | – | 1/5 | 54 | 4/5 | 60-80% | – | – | – | – | – | – | – | –
N.N.O.O.O=[N+]([O-])[O-].O=[N+]([O-])[O-].[Pt+2] [cis-aq, diaquodiammine Platinum (II)-nitrate] | – | – | – | – | – | – | 60-80% | 1 | 3 | 1 | 2/5 | 3/5 | 40 | at least partially toxic | more toxic than cis-Pt
